Data on 1 compound can be found in US8388930B2, “Diagnosis and assessment of skeletal related disease using calcium 41” (Lawrence LIvermore National Security, LLC, priority 2004, dated 2013).

Series [1] in a line: urinary 41Ca/Ca variability in monthly urine samples after oral 41Ca dose. The settings on record: days 500 to 700 after 1.2 ng oral 41Ca dose, six human volunteers. Format: in vivo. From the text:
^41Ca remains quantifiable via accelerator mass spectrometry (AMS) in human urine and blood for many years following a single chemically and radiologically benign oral or intravenous dose; this longevity makes urinary ^41Ca content very specific to bone turnover. […] Applicants also measured tracer distribution and increased ^41Ca release from pre-labeled bones in a human xenograft model of metastatic bone disease from prostate cancer. […] Low natural variability of urinary ^41Ca/Ca in humans will enable a non-invasive, highly sensitive clinical measure of bone turnover perturbations from metastatic bone disease.

The test system of series [2] is human xenograft model of metastatic bone disease from prostate cancer. In words: tracer distribution and 41Ca release from pre-labeled bones in human xenograft model of metastatic bone disease. The class given is in vivo, nude mice. From the text:
However, the ultimate value of these techniques for individual patients is uncertain, due (in part) to high natural variability of biomarkers in urine and serum (Kannis J A, McCloskey E V. Bone turnover and biochemical markers in malignancy. Cancer. 1997; 80:1538-45). Applicants believe that labeling the human skeleton with a ^41Ca tracer and monitoring urinary tracer abundance will provide a non-invasive, highly sensitive, clinically useful measure of bone turnover. The longest half-life isotope of calcium, ^41Ca, provides a sensitive method for tracking short and long-term bone turnover parameters. Due to extremely low natural abundance (<10^−15), a single sub-physiological ^41Ca dose (less than 1 ug=4 kBq=0.1 uCi) remains quantifiable via accelerator mass spectrometry (AMS) in blood and urine for many years: this longevity within the body's primary calcium pool makes ^41Ca variation specific to bone turnover (Weaver C M. Use of calcium tracers and biomarkers to determine calcium kinetics and bone turnover. Bone. 1998; 22(5):103S-104S). […]
^41Ca remains quantifiable via accelerator mass spectrometry (AMS) in human urine and blood for many years following a single chemically and radiologically benign oral or intravenous dose; this longevity makes urinary ^41Ca content very specific to bone turnover. […]
In general terms: In xenograft studies the graft and the host belong to different species.

For series [3] the following is noted: cited from earlier work.

Bounds are passed on as bounds.

As for `[41Ca]` [^41Ca, radioactive calcium isotope ^41Ca], in series [1], the “41Ca/Ca scatter about individual linear fits” value came out at 5±3%. In addition, the tracer distribution entry in series [2] (human xenograft tumor model in nude mice) is listed as “preferentially labels bone”. In addition, the “serum 41Ca/Ca correlation with disease measures” value in series [2] (serum, pre-labeled bones, xenograft model of prostate cancer bone metastasis) is “positively correlating with tumor size, skeletal disruption, serum tumor markers, and degree of hypercalcemia”. Also, in series [3] (ingested), the “lifetime radioactive exposure from ingested dose” value is given as less than 2e-10 Sv/Bq. In series [3] (injected), the “lifetime radioactive exposure from injected dose” value was less than 7e-10 Sv/Bq.
